Like-named read-outs stand apart in the source and are kept apart here.
Legend:
[1] = biological target: T1, A2BARs in Jurkat-T cell membranes (Homo sapiens, UniProt P29275); assay type: binding; conditions: vs [3H]PSB-603 (0.3 nM); Jurkat-T cells, A2B ≥ A2A; read-out: Ki ± SEM
T1 construct: Human Jurkat-T cells natively expressing A2A and A2BARs; endogenous in cells; host or cells: Jurkat-T
Protocol: The preparation of Jurkat-T cell membranes was performed as follows: a Jurkat-T cell suspension was centrifuged in 50 ml falcon tubes at 200 g, 4° C, 5 min. The supernatant was discarded and the cell pellets were quickly frozen at –80° C. The defrosted pellets were then resuspended in ice-cold 25 mM Tris-buffer, 0.32 M sucrose, 1 mM ethylenediaminetetraacetic acid (EDTA), 0.1 mM phenylmethanesulfonylfluoride (PMSF), pH 7.4, and homogenized with an Ultra-Turrax (30 s on ice). The homogenate was centrifuged for 10 min at 1000 g at 4° C. The resulting pellets were discarded and the supernatant was centrifuged for 1 h at 48.000 g at 4° C. Pellets containing the membranes were resuspended in aqua bidest., homogenized with an Ultra-Turrax (30 s on ice) and centrifuged under the same conditions. The supernantant was discarded and the pellets were resuspended in 50 mM Tris-buffer, pH 7.4 and homogenized with a glass Teflon homogenizer on ice. The resuspended and homogenzied pellets were aliquoted and stored at –80° C until use.
After an incubation time of 60 min at rt, the assay mixture was filtered through GF/B glass fiber filters. Washing buffer: 50 mM Tris-HCl buffer, 0.1% bovine serum albumin (BSA), pH 7.4.

[2] = biological target: T2, A2BARs in HeLa cell membranes (Homo sapiens, UniProt P29275); assay type: binding; conditions: vs [3H]PSB-603 (0.3 nM); HeLa cells, A2B ≥ A2A; read-out: Ki ± SEM
T2 construct: HeLa cells natively expressing human A2A and A2BARs; endogenous in cells; host or cells: HeLa
Protocol: (§4) The preparations of CHO and HeLa membranes recombinantly (or natively) expressing human A2A and/or A2BAR subtypes were performed as previously described [5]. Membranes from HEK-A2B or A2A cells, which were used for some of the radioligand competition binding studies, were purchased from Perkin Elmer (Waltham, USA). […] The protein content of all membrane preparations was determined with the Lowry method [58].

human A2AAR [3] = biological target: T3, human A2AAR (Homo sapiens, UniProt P29274); test: cAMP accumulation assay in CHO-A2A cells; assay type: cell-based
T3 construct: expressed in transfected cells
T3 sequence (P29274 whole entry): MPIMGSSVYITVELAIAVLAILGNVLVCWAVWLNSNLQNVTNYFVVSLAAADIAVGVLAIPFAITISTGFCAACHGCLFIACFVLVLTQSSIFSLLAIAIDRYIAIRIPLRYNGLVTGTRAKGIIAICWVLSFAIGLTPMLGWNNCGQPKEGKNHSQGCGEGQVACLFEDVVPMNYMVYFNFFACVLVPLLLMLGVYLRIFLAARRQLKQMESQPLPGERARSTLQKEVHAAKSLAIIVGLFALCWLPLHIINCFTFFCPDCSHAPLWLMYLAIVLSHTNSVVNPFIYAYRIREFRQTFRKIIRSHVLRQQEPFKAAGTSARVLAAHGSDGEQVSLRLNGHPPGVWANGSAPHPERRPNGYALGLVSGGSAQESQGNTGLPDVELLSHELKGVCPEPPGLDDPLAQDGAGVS
Protocol: (§1) The determination of cAMP accumulation in recombinant CHO and in Jurkat-T cells was performed as previously described.

[4] = biological target: T4, human A2AAR and A2BAR in HEK293T cells (Homo sapiens, UniProt P29274+P29275); test: cAMP assay at HEK-A2A cells transiently transfected with increasing amounts of A2BAR; assay type: cell-based; conditions: 100 nM agonist, A2BAR cDNA 0.25–1.5 µg
T4 construct: expressed in transfected cells; host or cells: HEK293T
T4 sequence (P29274 whole entry, one chain of several): as the sequence (P29274 whole entry) above
Protocol: HEK293T cells were transiently transfected with the corresponding cDNA (pcDNA3.1+-hA2B, pcDNA3.1+-hA2A) by the polyethylenimine (Sigma) method [62]. The determination of AR-induced cAMP accumulation in HEK293T cells transiently expressing A2A and A2BARs was performed as previously described [62].

[5] = biological target: T4, human A2AAR and A2BAR in HEK293T cells; test: Dynamic mass redistribution (DMR) assay in HEK293T cells transfected with A2A and A2BAR cDNA; assay type: cell-based; conditions: 100 nM agonist
Protocol: In brief, 24 h before the assay, cells were seeded at a density of 7,500 cells per well in 384-well sensor microplates with 40 µl of growth medium and cultured for 24 h (37° C, 5 % CO2) to obtain 70–80% confluent monolayers. […] Hereafter, the sensor plate was scanned and a baseline optical signature was recorded before adding 10 µl of test compound dissolved in assay buffer containing 0.1% DMSO and DMR responses were monitored for at least 8,000 s using an EnSpire® Multimode Plate Reader (PerkinElmer, Waltham, MA, USA) by a label-free technology. Data were analyzed using EnSpire Workstation Software v 4.10.

[6] = biological target: T5, A2A and A2BARs natively expressed in Jurkat-T cells (Homo sapiens, UniProt P29274+P29275); design: method as in ref [15] (a number printed in a supplementary file, which may have a reference list of its own: not looked up in the article's list); conditions: cAMP accumulation, up to 10 µM, ref [15]; cited from earlier work
T5 sequence (P29274 whole entry, one chain of several): as the sequence (P29274 whole entry) above

[7] = tested on: HEK293 (native) cells, A2B ≥ A2A; conditions: cited from earlier work
HEK-A2B cells, A2B ≥ A2A = conditions: cited from earlier work
[8] = tested on: T24 human bladder carcinoma cells; conditions: T24 human bladder carcinoma, cited from earlier work
[9] = tested on: Human prostatic carcinoma cells PC-3; design: method as in Wei Q, et al. Purinergic Signal. 2013; 9: 271-280. [23]; conditions: et al. Purinergic Signal. 2013, 9: 271-280. [23], cited from earlier work
[10] = tested on: prostate cancer cell lines (A2B > A2A); conditions: three prostate cancer cell lines (A2B > A2A); ref [13]; cited from earlier work
human A2BAR [11] = biological target: T6, human A2BAR (Homo sapiens, UniProt P29275); design: expressed in transfected cells; conditions: vs [3H]PSB-603 (0.3 nM); A2BAR expressing HEK or CHO membranes; ref [14]; read-out: Ki ± SEM; cited from earlier work
T6 sequence (P29275 1-332): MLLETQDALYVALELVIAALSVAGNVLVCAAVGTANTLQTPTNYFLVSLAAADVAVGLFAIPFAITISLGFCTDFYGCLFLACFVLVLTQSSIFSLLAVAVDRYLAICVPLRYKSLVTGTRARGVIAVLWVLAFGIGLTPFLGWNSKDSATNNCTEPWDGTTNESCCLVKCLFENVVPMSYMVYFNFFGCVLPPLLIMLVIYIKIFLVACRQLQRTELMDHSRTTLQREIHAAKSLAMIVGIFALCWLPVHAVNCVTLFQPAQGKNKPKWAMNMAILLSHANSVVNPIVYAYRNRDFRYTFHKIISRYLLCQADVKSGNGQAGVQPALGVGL

human A2BAR [12] = biological target: T6, human A2BAR; design: expressed in transfected cells; conditions: cAMP accumulation; CHO-A2B; ref [13]; cited from earlier work
human A2AAR [13] = biological target: T3, human A2AAR; assay type: binding
Protocol: The preparations of CHO and HeLa membranes recombinantly (or natively) expressing human A2A and/or A2BAR subtypes were performed as previously described [5]. Membranes from HEK-A2B or A2A cells, which were used for some of the radioligand competition binding studies, were purchased from Perkin Elmer (Waltham, USA). The preparation of Jurkat-T cell membranes was performed as follows: a Jurkat-T cell suspension was centrifuged in 50 ml falcon tubes at 200 g, 4° C, 5 min. The supernatant was discarded and the cell pellets were quickly frozen at –80° C. The defrosted pellets were then resuspended in ice-cold 25 mM Tris-buffer, 0.32 M sucrose, 1 mM ethylenediaminetetraacetic acid (EDTA), 0.1 mM phenylmethanesulfonylfluoride (PMSF), pH 7.4, and homogenized with an Ultra-Turrax (30 s on ice). The homogenate was centrifuged for 10 min at 1000 g at 4° C. The resulting pellets were discarded and the supernatant was centrifuged for 1 h at 48.000 g at 4° C. Pellets containing the membranes were resuspended in aqua bidest., homogenized with an Ultra-Turrax (30 s on ice) and centrifuged under the same conditions. The supernantant was discarded and the pellets were resuspended in 50 mM Tris-buffer, pH 7.4 and homogenized with a glass Teflon homogenizer on ice. […] The protein content of all membrane preparations was determined with the Lowry method [58].

human A2AAR [14] = biological target: T3, human A2AAR; conditions: vs [3H]MSX-2 (1 nM), A2AAR expressing HEK or CHO membranes, read-out: Ki ± SEM, cited from earlier work
human A2BAR [15] = biological target: T6, human A2BAR; test: biochemical
Protocol: as §4

human A2BAR [16] = biological target: T6, human A2BAR; test: cell-based
Protocol: as §1

[17] = biological target: T5, A2A and A2BARs natively expressed in Jurkat-T cells; conditions: read-out: KB-value ± SEM, cAMP accumulation, antagonist potency versus NECA
Protocol: as §1

[18] = tested on: isolated perfused mouse heart; conditions: A2B knockout vs wildtype mice, ref [51]; cited from earlier work
[19] = tested on: CHO-K1 cell membranes (non-transfected); test: Radioligand affinity (saturation or homologous competition) at CHO cells; assay type: binding, Chinese hamster
Protocol: (§2) Radioligand receptor binding experiments at membrane preparation of native (HeLa) and recombinant cells (CHO- or HEK cells recombinantly expressing A2A and/or A2BARs) using the A2B-selective antagonist radioligand [³H]PSB-603 (spec. activity: 79 Ci/mmol) to detect A2BARs were performed as previously described. Competition binding experiments at various membrane preparations of native (HeLa, Jurkat-T) and recombinant cells (CHO or HEK cells expressing A2A and/or A2BARs) using the A2A-selective antagonist radioligand [^3H]MSX-2 (spec. activity: 85 Ci/mmol) to detect A2AARs were performed in analogy to described procedures. […] Non-specific binding was determined in the presence of unlabeled MSX-2, or CGS-15943, respectively (10 µM), both giving identical results.
(§3) The assay was performed in a final volume of 400 µl containing 4 µl of test compound dissolved in DMSO, 196 µl buffer (50 mM Tris-HCl, 10 mM MgCl2 pH 7.4), 100 µl of radioligand solution in the same buffer (5 nM), and 100 µl of membrane preparation (10 to 200 µg of protein per vial, 2 U/ml ADA 20 min incubation at rt). […] All data were analyzed with GraphPad Prism, Version 4 (GraphPad Inc., La Jolla, CA).

human A2AAR [20] = biological target: T3, human A2AAR; test: Radioligand affinity at HEK or CHO-A2A; assay type: binding; conditions: saturation
Protocol: as §2, §3

HA-tagged human A2AAR = biological target: T7, HA-tagged human A2AAR (Homo sapiens, UniProt P29274); test: Radioligand affinity at CHO-HA-A2A; assay type: binding; conditions: homologous competition
T7 construct: HA; expressed in transfected cells
T7 sequence (P29274 whole entry): as the sequence (P29274 whole entry) above

[21] = biological target: T8, A2A and A2BARs in Jurkat-T cell membranes (Homo sapiens, UniProt P29274+P29275); test: Radioligand affinity at Jurkat-T cells (A2B ≥ A2A); assay type: binding; conditions: homologous competition
T8 construct: Human Jurkat-T cells natively expressing A2A and A2BARs; endogenous in cells; host or cells: Jurkat-T
T8 sequence (P29274 whole entry, one chain of several): as the sequence (P29274 whole entry) above
Protocol: as §2
as §3, with “CA). […]” for “CA).”

[22] = biological target: T9, A2A and A2BARs in HeLa cell membranes (Homo sapiens, UniProt P29274+P29275); test: Radioligand affinity at HeLa cells (A2B ≥ A2A); assay type: binding; conditions: homologous competition, read-out: KD ± SEM
T9 construct: HeLa cells natively expressing human A2A and A2BARs; endogenous in cells; host or cells: HeLa
T9 sequence (P29274 whole entry, one chain of several): as the sequence (P29274 whole entry) above
Protocol: as §2, §3

[23] = biological target: A2A and A2BARs in intact primary human lymphocytes; test: Radioligand affinity at intact primary human T-lymphocytes, unstimulated; assay type: binding; conditions: T-Lymphocytes unstimulated (A2A > A2B), intact cells, homologous competition
[24] = biological target: A2A and A2BARs in intact primary human lymphocytes; test: Radioligand affinity at intact primary human T-lymphocytes, stimulated with phytohemagglutinin; assay type: binding; conditions: T-Lymphocytes stimulated (A2A > A2B); intact cells; homologous competition; read-out: KD ± SEM
human A2BAR [25] = biological target: T6, human A2BAR; design: expressed in transfected cells; method as in ref [12] (a number printed in a supplementary file, which may have a reference list of its own: not looked up in the article's list); conditions: HEK or CHO-A2B (A2B); saturation; ref [12]; read-out: KD ± SEM; cited from earlier work
[26] = ref Gao Z, et al. Biochem Pharmacol. 2014, 90: 297-306. [17]
[27] = ref Hinz S, et al. J Pharmacol Exp Ther. 2014, 3: 427-436. [15]
[28] = ref Cooper J, et al. Br J Pharmacol. 1997, 122: 546-550. [18]
[29] = ref Phelps PT, et al. Eur J Pharmacol. 2006, 536: 28-37. [20]

Compound: N#Cc1c(N)nc(SCC(N)=O)c(C#N)c1-c1ccc(OCC2CC2)cc1 [BAY60-6583]
- Ki [1]: 2960 nM
- Ki [2]: 212 ± 58 nM
- EC50 (human A2AAR [3]; cAMP accumulation, CHO-A2A): > 10 µM
- change in cAMP accumulation with increasing amounts of transiently transfected A2BAR [4]: significant increase in cAMP accumulation
- change in DMR signal with increasing amounts of transiently transfected A2BAR [5]: time-dependent increase in the signal
- EC50 (result in words) [6]: low signal
- EC50 [7, 26]: 0.296 µM
- EC50 (HEK-A2B cells, A2B ≥ A2A; [26]): 6.14 nM
- EC50 (HEK-A2B cells, A2B ≥ A2A; [27]): 505 nM
- EC50 [8, 26]: 43 nM
- EC50 ([9]; ref Wei Q): 7.2 nM
- induction of cAMP accumulation [10]: concentration-dependently induced cAMP accumulation
- Ki (human A2BAR [11]): 212 ± 20 nM
- EC50 (human A2BAR [12]): 165 nM

Compound: CCCn1c(=O)c2[nH]c(C3CCCC3)nc2n(CCC)c1=O [DPCPX, 8-cyclopentyl-1,3-dipropylxanthine]
- A2B antagonist IC50/KB [7, 28]: DPCPX: 97.7 nM

Compound: CCCn1c(=O)c2[nH]c(-c3ccc(OCC(=O)Nc4ccc(C#N)cc4)cc3)nc2n(CCC)c1=O [MRS1754]
- A2B antagonist IC50/KB [8, 29]: MRS1754: 665 nM

Compound: C#CCn1c(=O)c2c(nc(C=Cc3cccc(OC)c3)n2C)n(CCCO)c1=O [MSX-2, 3-(3-hydroxypropyl)-7-methyl-8-(m-methoxystyryl)-1-propargylxanthine]
- Ki (human A2AAR [13]): 5 ± 0.6 nM
- Kb (human A2AAR [3]; read-out: KB-value ± SEM): 14.5 ± 3.6 nM
- Ki (human A2AAR [14]; ref [13]): 2.03 nM
- Ki (human A2BAR [15]): > 1000 nM

Compound: CCCn1c(=O)[nH]c2nc(-c3ccc(S(=O)(=O)N4CCN(c5ccc(Cl)cc5)CC4)cc3)[nH]c2c1=O [PSB-603, 8-(4-(4-(4-chlorophenyl)-piperazine-1-sulfonyl)phenyl)-1-propylxanthine]
- Ki [1]: 1.43 ± 0.58 nM
- Ki [2]: 1.43 ± 0.73 nM
- Kb (human A2BAR [16]): 0.358 nM
- Kb [17]: 0.871 nM
- Ki (human A2AAR [14]; ref [12]): > 10000 nM
- Kb ([9]; versus BAY60-6583, ref Wei Q, read-out: A2B antagonist KB): 1 nM

Compound: Nc1nc2c(cnn2CCc2ccccc2)c2nc(-c3ccco3)nn12 [SCH58261]
- A2A antagonist IC50/KB [8, 29]: SCH58261:405 nM
- block of NECA-induced increase in coronary flow [18]: blocked NECA-induced increase in coronary flow to a higher degree in KO than in WT mice

Compound: CCNC(=O)[C@H]1O[C@@H](n2cnc3c(N)nc(NCCc4ccc(CCC(=O)O)cc4)nc32)[C@H](O)[C@@H]1O [[³H]CGS-21680]
- KD ± SEM [19]: No binding

Compound: CCCn1c(=O)[nH]c2nc(-c3ccc(S(=O)(=O)N4CCN(c5ccc(Cl)cc5)CC4)cc3)[nH]c2c1=O [[³H]PSB-603]
- KD ± SEM [19]: no high-affinity binding
- KD ± SEM (human A2AAR [20]): no high-affinity binding
- KD ± SEM (HA-tagged human A2AAR): no high-affinity binding
- KD ± SEM [21]: high affinity binding
- Kd ([21]; read-out: KD ± SEM): 2.09 ± 0.72 nM
- Kd [22]: 2.49 ± 1.39 nM
- KD ± SEM [23]: High affinity binding
- Kd ([23]; read-out: KD ± SEM): 0.68 ± 0.242 nM
- Kd [24]: 0.241 ± 0.108 nM
- Kd (human A2BAR [25]): 0.403 ± 0.188 nM

Compound: Nc1ncnc2c1ncn2[C@@H]1O[C@H](CO)[C@@H](O)[C@H]1O [adenosine]
- EC50 [7, 28]: 65 µM
- EC50 (HEK-A2B cells, A2B ≥ A2A; [27]): 2510 nM
